pIC50: −log10 of the molar value.

The test system of this assay is MDA-MB-231 cells. Kind of assay: Extracellular lactate production inhibition after 4 h, MDA-MB-231. Conditions: Homo sapiens, MDA-MB-231.
Experimental: Extracellular Lactate Production Inhibition after 4 h
Cells were plated in growth media supplemented with 10% FBS, followed by overnight recovery at 37° C., 5% CO2. […] Plates were then moved for 4 h incubation at 37° C., 5% CO2 with subsequent 20 μl media transfer to empty 384-well transparent plates. […] Plates were short-spun and measured kinetically in absorbance mode (530 nm, 12 min measurement time with 2-minute intervals between subsequent readouts at 30° C.). Differences in the signal between T8 min and T0min were normalized to vehicle (cells w/ 0.25% DMSO) and quasi-positive (LCIS buffer w/ 0.25% DMSO) controls and plotted against logarithmically-transformed test compound concentrations with fitting the 4-parameter model in GraphPad Prism software.
In turn, `O=C(O)c1ccc(C#Cc2ccccc2NS(=O)(=O)c2ccc3c(c2)[nH]c2ccccc23)cn1` [Compound 124, 5-{2-[2-(9H-carbazole-2-sulfonamido)phenyl]ethynyl}pyridine-2-carboxylic acid] showed a negative-log IC50 (pIC50) of 6.00 to 7.00.
In the case of `COc1ccc(S(=O)(=O)Nc2ccccc2C#Cc2ccc(C(=O)O)cc2)c(C)c1` [Compound 47, 4-{2-[2-(4-methoxy-2-methylbenzenesulfonamido)phenyl]ethynyl} benzoic acid] it was 6.00 to 7.00; in that of `COC(=O)c1ccc(C#Cc2ccccc2NS(=O)(=O)c2ccccc2-c2ccccc2)cn1` [Compound 135, methyl 5-[2-(2-{[1,1′-biphenyl]-2-sulfonamido}phenyl)ethynyl]pyridine-2-carboxylate], 6.00 to 7.00; in that of `Cc1ccc2cccnc2c1S(=O)(=O)Nc1ccc(N)cc1C#Cc1ccc(C(=O)O)nc1` [Compound 231, 5-{2-[5-amino-2-(7-methylquinoline-8-sulfonamido)phenyl]ethynyl}pyridine-2-carboxylic acid], 4.00 to 6.00.
Take `COc1ccc(S(=O)(=O)Nc2ccc(Cl)cc2C#Cc2cnc(C(=O)O)c3ccccc23)c(C)c1C` [Compound 400, 4-[5-Chloro-2-(4-methoxy-2,3-dimethyl-benzenesulfonylamino)-phenylethynyl]-isoquinoline-1-carboxylic acid]: the pIC50 is 7.00 to 8.00.
`CNc1cc(C#Cc2ccccc2NS(=O)(=O)c2c(C)ccc3cccnc23)cnc1C(=O)O` [Compound 206, 3-(methylamino)-5-{2-[2-(7-methylquinoline-8-sulfonamido)phenyl]-ethynyl}pyridine-2-carboxylic acid] showed a pIC50 of 8.00 to 9.00.
For `Cc1cc(S(=O)(=O)Nc2ccccc2C#Cc2cnc(C(=O)O)c(Cl)c2)c2ncccc2c1` [Compound 335, 3-chloro-5-{2-[2-(6-methylquinoline-8-sulfonamido)phenyl]ethynyl}pyridine-2-carboxylic acid], the negative-log IC50 (pIC50) was 4.00 to 6.00.
The compound `COc1ccc(S(=O)(=O)Nc2ccccc2C#Cc2cnc(C(=O)O)cc2C)c2ncccc12` [Compound 110, 5-{2-[2-(5-methoxyquinoline-8-sulfonamido)phenyl]ethynyl}-4-methylpyridine-2-carboxylic acid] showed a pIC50 of 7.00 to 8.00.
For `COc1ccc(S(=O)(=O)Nc2ccc(Cl)cc2C#Cc2ccc(C(=O)O)nc2)cc1` [Compound 390, 5-[5-Chloro-2-(4-methoxy-benzenesulfonylamino)-phenylethynyl]-pyridine-2-carboxylic acid] the value was 6.00 to 7.00; for `O=C(O)c1ccc(C#Cc2ccccc2NS(=O)(=O)C2=Cc3ccccc3CC2)cc1` [Compound 78, 4-{2-[2-(3,4-dihydronaphthalene-2-sulfonamido)phenyl]ethynyl}benzoic acid], 6.00 to 7.00.
In the case of `Cc1ccc2cccnc2c1S(=O)(=O)Nc1ccc(Br)cc1C#Cc1ccc(C(=O)O)nc1` [Compound 340, 5-{2-[5-bromo-2-(7-methylquinoline-8-sulfonamido)phenyl]ethynyl}pyridine-2-carboxylic acid] it was 8.00 to 9.00; in that of `CC(C)Oc1ccnc2c(S(=O)(=O)Nc3ccccc3C#Cc3ccc(C(=O)O)nc3)cccc12` [Compound 349, 5-(2-{2-[4-(propan-2-yloxy)quinoline-8-sulfonamido]phenyl}ethynyl)pyridine-2-carboxylic acid], 6.00 to 7.00.
Regarding `O=C(O)c1ccc(C#Cc2ccccc2NS(=O)(=O)c2ccc3c(c2)oc2ccccc23)cn1` [Compound 301, 5-[2-(2-{8-oxatricyclo[7.4.0.0^2,7]trideca-1(9),2(7),3,5,10,12-hexaene-5-sulfonamido}phenyl)ethynyl]pyridine-2-carboxylic acid], the negative-log IC50 (pIC50) is 6.00 to 7.00.
The compound `Cc1ccc2cccnc2c1S(=O)(=O)Nc1ccccc1C#Cc1cnc(C(=O)O)cc1O` [Compound 193, 4-hydroxy-5-{2-[2-(7-methylquinoline-8-sulfonamido)phenyl]ethynyl}pyridine-2-carboxylic acid] had a negative-log IC50 (pIC50) of 4.00 to 6.00.
Take `Cc1ccc2cccnc2c1S(=O)(=O)Nc1ccccc1C#Cc1cnc(C(=O)O)cc1Cl` [Compound 149, 4-chloro-5-{2-[2-(7-methylquinoline-8-sulfonamido)phenyl]ethynyl}pyridine-2-carboxylic acid]: the pIC50 was 7.00 to 8.00.
`COc1cc(CN(C=O)c2ccccc2C#Cc2ccc(C(=O)O)nc2)ccc1-c1ccccc1` [Compound 201, 5-(2-{2-[N-({2-methoxy-[1,1′-biphenyl]-4-yl}methyl)formamido]phenyl}-ethynyl)pyridine-2-carboxylic acid] showed a pIC50 of 7.00 to 8.00.
In the case of `O=C(O)c1ccc(C#Cc2c(F)cccc2NS(=O)(=O)c2cccc3cccnc23)cn1` [Compound 101, 5-{2-[2-fluoro-6-(quinoline-8-sulfonamido)phenyl]ethynyl}pyridine-2-carboxylic acid] it was 4.00 to 6.00.
In the case of `Cn1c2ccccc2c2ccc(S(=O)(=O)Nc3ccccc3C#Cc3ccc(C(=O)O)nc3)cc21` [Compound 150, 5-{2-[2-(9-methyl-9H-carbazole-2-sulfonamido)phenyl]ethynyl}pyridine-2-carboxylic acid] it was 6.00 to 7.00.
For `COc1ccc(S(=O)(=O)Nc2ccccc2C#Cc2ccc(C(=O)O)nc2)c(C)c1` [Compound 72, 5-{2-[2-(4-methoxy-2-methylbenzenesulfonamido)phenyl]-ethynyl}pyridine-2-carboxylic acid] the value was 4.00 to 6.00; for `Cc1ccc2cccnc2c1S(=O)(=O)Nc1ccc(Cl)cc1C#Cc1ccc(C(=O)O)nc1` [Compound 363, 5-{2-[5-chloro-2-(7-methylquinoline-8-sulfonamido)phenyl]ethynyl}pyridine-2-carboxylic acid], 4.00 to 6.00.
For `COc1cc(C(=O)N(C)C)ncc1C#Cc1ccccc1NS(=O)(=O)c1ccc(OC)c2cccnc12` [Compound 223, 4-methoxy-5-{2-[2-(5-methoxyquinoline-8-sulfonamido)phenyl]ethynyl}-N,N-dimethylpyridine-2-carboxamide], the negative-log IC50 (pIC50) is 4.00 to 6.00.
For the compound `Cc1ccc(C#Cc2ccc(C(=O)O)cc2)c(NS(=O)(=O)c2ccc3ccccc3c2)c1` [Compound 46, 4-{2-[4-methyl-2-(naphthalene-2-sulfonamido)phenyl]ethynyl}benzoic acid], the pIC50 is 6.00 to 7.00.
For `Cc1ccc2cccnc2c1S(=O)(=O)Nc1cc(Cl)c(Cl)cc1C#Cc1ccc(C(=O)O)nc1` [Compound 204, 5-{2-[4,5-dichloro-2-(7-methylquinoline-8-sulfonamido)phenyl]ethynyl}pyridine-2-carboxylic acid] the value was 7.00 to 8.00; for `O=CN(Cc1ccc2ccccc2c1)c1ccccc1C#Cc1ccc(C(=O)O)nc1` [Compound 115, 5-[2-(2-{N-[(naphthalen-2-yl)methyl]formamido}phenyl)ethynyl]-pyridine-2-carboxylic acid], 6.00 to 7.00; for `CCOc1cc(C(=O)O)ncc1C#Cc1ccccc1NS(=O)(=O)c1c(C)ccc2cccnc12` [Compound 180, 4-ethoxy-5-{2-[2-(7-methylquinoline-8-sulfonamido)phenyl]ethynyl}pyridine-2-carboxylic acid], 7.00 to 8.00.
Turning to `COc1cc(C(=O)O)ncc1C#Cc1cc(Cl)ccc1NS(=O)(=O)c1ccc(OC)c2cccnc12` [Compound 360, 5-{2-[5-chloro-2-(5-methoxyquinoline-8-sulfonamido)phenyl]ethynyl}-4-methoxypyridine-2-carboxylic acid], the pIC50 was 8.00 to 9.00.

In general, pIC50 refers to the negative decadic logarithm of the IC50, by convention in mol/L. Higher therefore signals a low IC50.

Source of the values: US12351570B2 (MERCK PATENT GMBH, priority 2018, dated 2025).
